Experimental data as given in patent US9040530B2, “1,2,4-triazine-6-carboxamide kinase inhibitors” (Portola Pharmaceuticals, Inc., priority 2012, dated 2015).

Molecular target: T1, full length active recombinant SYK enzyme (Homo sapiens, UniProt P43405)
T1 construct: full length active recombinant SYK enzyme (Millipore, Calif.); purchased Millipore
Assay: Inhibition of Syk tyrosine phosphorylation activity (LANCE TR-FRET kinase assay)
Assay type: biochemical
Conditions: 1 nM active SYK enzyme, 550 nM SYK-substrate, 100 μM ATP, 1 hour at room temperature

Row | Structure (SMILES) | IC50 [nM]
1 | NC(=O)c1nnc(N[C@@H]2CCCC[C@@H]2N)nc1Nc1cc(F)cc(F)c1 [Example 20, 3-(((1R,2S)-2-aminocyclohexyl)amino)-5-((3,5-difluorophenyl)amino)-1,2,4-triazine-6-carboxamide] | 1 to 10
2 | CC[C@@H](Nc1nnc(C(N)=O)c(Nc2ccc(C)cc2)n1)C(N)=O [Example 10, (R)-3-((1-amino-1-oxobutan-2-yl)amino)-5-(p-tolylamino)-1,2,4-triazine-6-carboxamide] | 10 to 100
3 | Cc1cc(Nc2nc(N[C@@H]3CCOC[C@@H]3N)nnc2C(N)=O)sn1 [Example 142, 3-(((3R,4R)-3-aminotetrahydro-2H-pyran-4-yl)amino)-5-((3-methylisothiazol-5-yl)amino)-1,2,4-triazine-6-carboxamide] | 10 to 100
4 | NC(=O)c1nnc(N[C@@H]2CCCC[C@@H]2N)nc1Nc1cc(F)cc(Cl)c1 [Example 21, 3-(((1R,2S)-2-aminocyclohexyl)amino)-5-((3-chloro-5-fluorophenyl)amino)-1,2,4-triazine-6-carboxamide] | 1 to 10
5 | NC(=O)c1nnc(N[C@@H]2CCCC(F)(F)[C@@H]2N)nc1Nc1cccc(-c2ncco2)c1 [Example 130, 3-(((1R,2R)-2-amino-3,3-difluorocyclohexyl)amino)-5-((3-(oxazol-2-yl)phenyl)amino)-1,2,4-triazine-6-carboxamide] | > 1000
6 | Cc1ccc(Nc2nc(N[C@@H]3CCCC(F)(F)[C@@H]3N)nnc2C(N)=O)cc1F [Example 205, 3-(((1R,2R)-2-amino-3,3-difluorocyclohexyl)amino)-5-((3-fluoro-4-methylphenyl)amino)-1,2,4-triazine-6-carboxamide] | 10 to 100
7 | Cc1ccc(Nc2nc(N[C@H](Cc3ccc(F)cc3)C(N)=O)nnc2C(N)=O)cc1 [Example 189, (R)-3-(1-amino-3-(4-fluorophenyl)-1-oxopropan-2-ylamino)-5-(p-tolylamino)-1,2,4-triazine-6-carboxamide] | 10 to 100
8 | NC(=O)c1nnc(N[C@@H]2CCCC[C@@H]2N)nc1Nc1ccc(N2CCOCC2)c(F)c1 [Example 30, 3-(((1R,2S)-2-aminocyclohexyl)amino)-5-((3-fluoro-4-morpholinophenyl)amino)-1,2,4-triazine-6-carboxamide] | 1 to 10
9 | CC[C@@H](Nc1nnc(C(N)=O)c(Nc2cnc3cc(F)ccc3c2)n1)C(N)=O [Example 159, (R)-3-((1-amino-1-oxobutan-2-yl)amino)-5-((7-fluoroquinolin-3-yl)amino)-1,2,4-triazine-6-carboxamide] | 10 to 100
10 | CN(C)C(=O)c1ccc(Nc2nc(N[C@@H]3CCCC[C@@H]3N)nnc2C(N)=O)cn1 [Example 65, 3-(((1R,2S)-2-aminocyclohexyl)amino)-5-((6-(dimethylcarbamoyl)pyridin-3-yl)amino)-1,2,4-triazine-6-carboxamide] | > 1000
11 | Cc1cc(Nc2nc(N[C@@H]3CCCC(F)(F)[C@@H]3N)nnc2C(N)=O)ccc1Cl [Example 218, 3-(((1R,2R)-2-amino-3,3-difluorocyclohexyl)amino)-5-((4-chloro-3-methylphenyl)amino)-1,2,4-triazine-6-carboxamide] | 10 to 100
12 | NC(=O)c1nnc(N[C@@H]2CCCC[C@@H]2N)nc1Nc1ccccc1 [Example 69, 3-(((1R,2S)-2-aminocyclohexyl)amino)-5-(phenylamino)-1,2,4-triazine-6-carboxamide] | 1 to 10
13 | NC(=O)c1nnc(N[C@@H]2CCCC[C@@H]2N)nc1Nc1ccc(F)cc1 [Example 25, 3-(((1R,2S)-2-aminocyclohexyl)amino)-5-((4-fluorophenyl)amino)-1,2,4-triazine-6-carboxamide] | 10 to 100
14 | CC[C@@H](Nc1nnc(C(N)=O)c(Nc2ccc3c(c2)CCOC3)n1)C(N)=O [Example 212, (R)-3-((1-amino-1-oxobutan-2-yl)amino)-5-(isochroman-6-ylamino)-1,2,4-triazine-6-carboxamide] | 10 to 100
15 | Cc1cccc(Nc2nc(N[C@@H]3CCCC[C@@H]3N)nnc2C(N)=O)c1 [Example 11, 3-(((1R,2S)-2-aminocyclohexyl)amino)-5-(m-tolylamino)-1,2,4-triazine-6-carboxamide] | < 1
16 | Cn1ccc2c(Nc3nc(N[C@@H]4CCCC[C@@H]4N)nnc3C(N)=O)cccc21 [Example 81, 3-(((1R,2S)-2-aminocyclohexyl)amino)-5-((1-methyl-1H-indol-4-yl)amino)-1,2,4-triazine-6-carboxamide] | 1 to 10
17 | Cn1cc(C#N)c2ccc(Nc3nc(N[C@@H]4CCCC[C@@H]4N)nnc3C(N)=O)cc21 [Example 136, 3-(((1R,2S)-2-aminocyclohexyl)amino)-5-((3-cyano-1-methyl-1H-indol-6-yl)amino)-1,2,4-triazine-6-carboxamide] | 1 to 10
18 | NC(=O)c1nnc(N[C@@H]2CCCC[C@@H]2N)nc1Nc1cnc2cccnc2c1 [Example 258, 5-((1,5-naphthyridin-3-yl)amino)-3-(((1R,2S)-2-aminocyclohexyl)amino)-1,2,4-triazine-6-carboxamide] | 10 to 100

Row | Structure (SMILES) | IC50 [nM]
19 | CC[C@@H](Nc1nnc(C(N)=O)c(Nc2ccc(C)c(Cl)c2)n1)C(N)=O [Example 222, (R)-3-((1-amino-1-oxobutan-2-yl)amino)-5-((3-chloro-4-methylphenyl)amino)-1,2,4-triazine-6-carboxamide] | 10 to 100
20 | NC(=O)c1nnc(N[C@@H]2CCCC[C@@H]2N)nc1Nc1cncc(F)c1 [Example 14, 3-(((1R,2S)-2-aminocyclohexyl)amino)-5-((5-fluoropyridin-3-yl)amino)-1,2,4-triazine-6-carboxamide] | 100 to 1000
21 | NC(=O)c1nnc(N[C@@H]2CCCC(F)(F)[C@@H]2N)nc1Nc1ccc2c(c1)COCC2 [Example 228, 3-(((1R,2R)-2-amino-3,3-difluorocyclohexyl)amino)-5-(isochroman-7-ylamino)-1,2,4-triazine-6-carboxamide] | 1 to 10
22 | NC(=O)c1nnc(N[C@@H]2CCCC(F)(F)[C@@H]2N)nc1Nc1ccc(C(F)(F)F)cc1 [Example 239, 3-(((1R,2R)-2-amino-3,3-difluorocyclohexyl)amino)-5-((4-(trifluoromethyl)phenyl)amino)-1,2,4-triazine-6-carboxamide] | 10 to 100
23 | NC(=O)c1nnc(N[C@@H]2CCCC[C@@H]2N)nc1Nc1ccc(N2CCOCC2=O)cc1 [Example 34, 3-(((1R,2S)-2-aminocyclohexyl)amino)-5-((4-(3-oxomorpholino)phenyl)amino)-1,2,4-triazine-6-carboxamide] | 100 to 1000
24 | Cn1ccc2cc(Nc3nc(N[C@H]4CN[C@@H](CO)C4)nnc3C(N)=O)cnc21 [Example 153, 3-(((3R,5R)-5-(hydroxymethyl)pyrrolidin-3-yl)amino)-5-((1-methyl-1H-pyrrolo[2,3-b]pyridin-5-yl)amino)-1,2,4-triazine-6-carboxamide] | 10 to 100
25 | NC(=O)c1nnc(N[C@@H]2CCCC[C@@H]2N)nc1Nc1ccc(N2CCOCC2=O)c(F)c1 [Example 33, 3-(((1R,2S)-2-aminocyclohexyl)amino)-5-((3-fluoro-4-(3-oxomorpholino)phenyl)amino)-1,2,4-triazine-6-carboxamide] | 100 to 1000
26 | NC(=O)c1nnc(N[C@H](CC2CC2)C(N)=O)nc1Nc1ccc(Cl)cc1 [Example 249, (R)-3-((1-amino-3-cyclopropyl-1-oxopropan-2-yl)amino)-5-((4-chlorophenyl)amino)-1,2,4-triazine-6-carboxamide] | 10 to 100
27 | NC(=O)c1nnc(N[C@@H]2CCCC[C@@H]2N)nc1Nc1cnc2c(F)cccc2c1 [Example 160, 3-(((1R,2S)-2-aminocyclohexyl)amino)-5-((8-fluoroquinolin-3-yl)amino)-1,2,4-triazine-6-carboxamide] | 1 to 10
28 | CC[C@@H](Nc1nnc(C(N)=O)c(Nc2csc3ncccc23)n1)C(N)=O [Example 39, (R)-3-((1-amino-1-oxobutan-2-yl)amino)-5-(thieno[2,3-b]pyridin-3-ylamino)-1,2,4-triazine-6-carboxamide] | 1 to 10
29 | CC[C@@H](Nc1nnc(C(N)=O)c(Nc2ccc(OC)c(C(F)(F)F)c2)n1)C(N)=O [Example 112, (R)-3-((1-amino-1-oxobutan-2-yl)amino)-5-((4-methoxy-3-(trifluoromethyl)phenyl)amino)-1,2,4-triazine-6-carboxamide] | 100 to 1000
30 | CC[C@@H](Nc1nnc(C(N)=O)c(Nc2cccc(-c3ncccn3)c2)n1)C(N)=O [Example 84, (R)-3-((1-amino-1-oxobutan-2-yl)amino)-5-((3-(pyrimidin-2-yl)phenyl)amino)-1,2,4-triazine-6-carboxamide] | 100 to 1000
31 | NC(=O)c1nnc(N[C@@H]2CCCC[C@@H]2N)nc1Nc1ccc(-c2ncco2)cc1 [Example 131, 3-(((1R,2S)-2-aminocyclohexyl)amino)-5-((4-(oxazol-2-yl)phenyl)amino)-1,2,4-triazine-6-carboxamide] | 1 to 10
32 | NC(=O)c1nnc(N[C@@H]2CCCC(F)(F)[C@@H]2N)nc1Nc1ccc(-c2ncco2)cc1 [Example 132, 3-(((1R,2R)-2-amino-3,3-difluorocyclohexyl)amino)-5-((4-(oxazol-2-yl)phenyl)amino)-1,2,4-triazine-6-carboxamide] | 10 to 100
33 | CC[C@@H](Nc1nnc(C(N)=O)c(Nc2ccc3cn[nH]c3c2)n1)C(N)=O [Example 128, (R)-5-((1H-indazol-6-yl)amino)-3-((1-amino-1-oxobutan-2-yl)amino)-1,2,4-triazine-6-carboxamide] | 1 to 10
34 | NC(=O)c1nnc(N[C@@H]2CCOC[C@@H]2N)nc1Nc1cccc(-c2ncccn2)c1 [Example 71, 3-(((3R,4R)-3-aminotetrahydro-2H-pyran-4-yl)amino)-5-((3-(pyrimidin-2-yl)phenyl)amino)-1,2,4-triazine-6-carboxamide] | 10 to 100
35 | CC[C@@H](Nc1nnc(C(N)=O)c(Nc2ccc(N(C)C)c(F)c2)n1)C(N)=O [Example 162, (R)-3-((1-amino-1-oxobutan-2-yl)amino)-5-((4-(dimethylamino)-3-fluorophenyl)amino)-1,2,4-triazine-6-carboxamide] | 10 to 100
